According to patent publication US8580829B2 (Boehringer Ingelheim International GmbH, priority 2010, dated 2013):
Where two headings read alike, the source gives them in different places.

How the values were obtained:
[1] = target: T1, recombinant human FLAP protein (Homo sapiens, UniProt P20292); assay: FLAP binding assay (Scintillation Proximity Assay, displacement of [125I]L-691,831); conditions: recombinant human FLAP membranes, [125I]L-691,831 probe; read-out: FLAP SPA IC50
T1 construct: made in house; host or cells: Sf9 insect cells (100,000 x g membrane fraction)
T1 sequence (P20292 1-161): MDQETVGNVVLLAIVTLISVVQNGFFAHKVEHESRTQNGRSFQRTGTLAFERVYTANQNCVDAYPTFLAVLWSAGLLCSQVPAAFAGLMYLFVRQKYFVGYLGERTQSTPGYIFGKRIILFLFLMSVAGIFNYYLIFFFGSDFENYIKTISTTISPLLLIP
Outline: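 WGA scintillation proximity beads were stirred 1 h with 5 μg of FLAP-containing membrane protein. The membranes came from baculovirus Sf9 cells, Dounce-lysed and spun to a 100,000×g pellet in buffer at pH 7.5.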

[2] = tested on: synthesis of LTB4 in human whole blood; assay: human whole blood LTB4 production inhibition assay; type: cell-based
Outline: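 Whole-blood cellular format, heparinized human donors: 15 min compound pretreatment, then 30 min calcimycin stimulation (20 μM final), both at 37° C. Low-speed centrifugation yields plasma, in which LTB4 is read by homogeneous time-resolved fluorescence immunoassay.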

[3] = Homo sapiens, heparinized human whole blood, calcimycin 20 μM, read-out: hWB LTB4 IC50

Row | Structure (SMILES) | IC50 [1] [µM] | IC50 [2, 3] [nM] | IC50 ([2]; heparinized human whole blood, calcimycin 20 μM, read-out: hWB LTB4 IC50) [nM] | IC50 ([2]; Homo sapiens, read-out: hWB LTB4 IC50 (nM)) [nM]
1 | CN(C)C(=O)Cn1cc(-c2nc(C3(c4ccc(-c5cnc(N)nc5)cc4)CC3)no2)cn1 [Example 268, 2-[4-(3-{1-[4-(2-Amino-pyrimidin-5-yl)-phenyl]-cyclopropyl}-[1,2,4]oxadiazol-5-yl)-pyrazol-1-yl]-N,N-dimethyl-acetamide] | 0.67 | > 5000 |  | 
2 | Nc1ncc(-c2ccc(C3(c4noc(-c5csc(C6CCNCC6)n5)n4)CCC3)cc2)cn1 [Example 269] | 0.0056 |  | 320 | 
3 | CN(C)CCN(C)c1cnc(-c2nc(C3(c4ccc(-c5cnc(N)nc5)cc4)CCC3)no2)cn1 [Example 271, N-[5-(3-{1-[4-(2-Amino-pyrimidin-5-yl)-phenyl]-cyclobutyl}-[1,2,4]oxadiazol-5-yl)-pyrazin-2-yl]-N,N′,N′-trimethyl-ethane-1,2-diamine] | 0.0053 | 44 |  | 
4 | Cn1cc(-c2nc(C3(c4ccc(-c5cnc6c(c5)CCN6)cc4)CCC3)no2)cn1 [Example 272, 5-(4-{1-[5-(1-Methyl-1H-pyrazol-4-yl)-[1,2,4]oxadiazol-3-yl]-cyclobutyl}-phenyl)-2,3-dihydro-1H-pyrrolo[2,3-b]pyridine] | 0.0038 | 79 |  | 
5 | Cn1cc(-c2nc(C3(c4ccc(-c5cnc6[nH]ccc6c5)cc4)CCC3)no2)cn1 [Example 273, 5-(4-{1-[5-(1-Methyl-1H-pyrazol-4-yl)-[1,2,4]oxadiazol-3-yl]-cyclobutyl}-phenyl)-1H-pyrrolo[2,3-b]pyridine] | 0.0039 | 79 |  | 
6 | Cn1cc(-c2nc(C3(c4ccc(-c5cnc(N)c(CO)c5)cc4)CCC3)no2)cn1 [Example 274, [2-Amino-5-(4-{1-[5-(1-methyl-1H-pyrazol-4-yl)-[1,2,4]oxadiazol-3-yl]-cyclobutyl}-phenyl)-pyridin-3-yl]-methanol] | 0.0088 | 220 |  | 
7 | CN(C)C(=O)Cn1cc(-c2nc(C3(c4ccc(-c5cnc6[nH]ccc6n5)cc4)CCC3)no2)cn1 [Example 275, N,N-Dimethyl-2-[4-(3-{1-[4-(5H-pyrrolo[2,3-b]pyrazin-2-yl)-phenyl]-cyclobutyl}-[1,2,4]oxadiazol-5-yl)-pyrazol-1-yl]-acetamide] | 0.0028 | 140 |  | 
8 | CNc1ncc(-c2ccc(C3(c4noc(-c5cnn(CC(=O)N(C)C)c5)n4)CCC3)cc2)cn1 [Example 276, N,N-Dimethyl-2-[4-(3-{1-[4-(2-methylamino-pyrimidin-5-yl)-phenyl]-cyclobutyl}-[1,2,4]oxadiazol-5-yl)-pyrazol-1-yl]-acetamide] | 0.007 | 110 |  | 
9 | CN1CCC(N(C)c2nc(C3(c4ccc(-c5cnc(N)nc5)cc4)CCC3)no2)CC1 [Example 293, 5-[4-(1-{5-[Methyl-(1-methyl-piperidin-4-yl)-amino]-[1,2,4]oxadiazol-3-yl}-cyclobutyl)-phenyl]-pyrimidin-2-ylamine] | 0.15 |  |  | 750
10 | CNc1ncc(-c2ccc(C3(c4noc(-c5cnn(C)c5)n4)CCC3)cc2)cn1 [Example 294, Methyl-[5-(4-{1-[5-(1-methyl-1H-pyrazol-4-yl)-[1,2,4]oxadiazol-3-yl]-cyclobutyl}-phenyl)-pyrimidin-2-yl]-amine] | 0.0044 | 35 |  | 
11 | Cc1cc(-c2cnc(N)nc2)ccc1C1(c2noc(-c3cnn(C)c3)n2)CCC1 [Example 295] | 0.012 | 100 |  | 

Continued, in another order:

Row | IC50 [1] [µM] | IC50 [2, 3] [nM] | Structure (SMILES) | IC50 ([2]; heparinized human whole blood, calcimycin 20 μM, read-out: hWB LTB4 IC50) [nM] | IC50 ([2]; Homo sapiens, read-out: hWB LTB4 IC50 (nM)) [nM]
12 | 0.26 | 2800 | Nc1ncc(-c2ccc(C3(c4noc(Cn5ccnc5)n4)CCC3)cc2)cn1 [Example 277, 5-{4-[1-(5-Imidazol-1-ylmethyl-[1,2,4]oxadiazol-3-yl)-cyclobutyl]-phenyl}-pyrimidin-2-ylamine] |  | 
13 | 0.078 | 1700 | CC(C)(O)Cc1nc(C2(c3ccc(-c4cnc(N)nc4)cc3)CCC2)no1 [Example 278, 1-(3-{1-[4-(2-Amino-pyrimidin-5-yl)-phenyl]-cyclobutyl}-[1,2,4]oxadiazol-5-yl)-2-methyl-propan-2-ol] |  | 
14 | 0.029 | > 5000 | Cc1n[nH]c(C)c1Cc1nc(C2(c3ccc(-c4cnc(N)nc4)cc3)CCC2)no1 [Example 279] |  | 
15 | 0.017 | 1400 | CN1CCCCC1c1nc(C2(c3ccc(-c4cnc(N)nc4)cc3)CCC2)no1 (centres unmarked) [Example 280, 5-(4-{1-[5-(1-Methyl-piperidin-2-yl)-[1,2,4]oxadiazol-3-yl]-cyclobutyl}-phenyl)-pyrimidin-2-ylamine] |  | 
16 | 0.026 | 1100 | Nc1ncc(-c2ccc(C3(c4noc([C@H]5CCCCN5)n4)CCC3)cc2)cn1 [Example 282, 5-{4-[1-((R)-5-Piperidin-2-yl-[1,2,4]oxadiazol-3-yl)-cyclobutyl]-phenyl}-pyrimidin-2-ylamine] |  | 
17 | 0.06 | 1400 | Nc1ncc(-c2ccc(C3(c4noc(C5CCCCN5)n4)CCC3)cc2)cn1 (centres unmarked) [Example 283, 5-{4-[1-(5-Piperidin-2-yl-[1,2,4]oxadiazol-3-yl)-cyclobutyl]-phenyl}-pyrimidin-2-ylamine] |  | 
18 | 0.018 | 120 | Nc1ncc(-c2ccc(C3(c4noc(N5CCC(O)CC5)n4)CCC3)cc2)cn1 [Example 284, 1-(3-{1-[4-(2-Amino-pyrimidin-5-yl)-phenyl]-cyclobutyl}-[1,2,4]oxadiazol-5-yl)-piperidin-4-ol] |  | 
19 | 0.014 | 200 | Nc1ncc(-c2ccc(C3(c4noc(N5CCCC(CO)C5)n4)CCC3)cc2)cn1 (centres unmarked) [Example 286, [1-(3-{1-[4-(2-Amino-pyrimidin-5-yl)-phenyl]-cyclobutyl}-[1,2,4]oxadiazol-5-yl)-piperidin-3-yl]-methanol] |  | 
20 | 0.036 | 200 | Nc1ncc(-c2ccc(C3(c4noc(N5CC[C@H](O)C5)n4)CCC3)cc2)cn1 [Example 287, (S)-1-(3-{1-[4-(2-Amino-pyrimidin-5-yl)-phenyl]-cyclobutyl}-[1,2,4]oxadiazol-5-yl)-pyrrolidin-3-ol] |  | 
21 | 0.026 | 310 | Nc1ncc(-c2ccc(C3(c4noc(N5CCC[C@H]5CO)n4)CCC3)cc2)cn1 [Example 288, [(S)-1-(3-{1-[4-(2-Amino-pyrimidin-5-yl)-phenyl]-cyclobutyl}-[1,2,4]oxadiazol-5-yl)-pyrrolidin-2-yl]-methanol] |  | 
22 | 0.031 | 500 | Nc1ncc(-c2ccc(C3(c4noc(N5CCC[C@@H]5CO)n4)CCC3)cc2)cn1 [Example 289, [(R)-1-(3-{1-[4-(2-Amino-pyrimidin-5-yl)-phenyl]-cyclobutyl}-[1,2,4]oxadiazol-5-yl)-pyrrolidin-2-yl]-methanol] |  | 
23 | 0.035 | 230 | Nc1ncc(-c2ccc(C3(c4noc(N5CC[C@@H](O)C5)n4)CCC3)cc2)cn1 [Example 290, (R)-1-(3-{1-[4-(2-Amino-pyrimidin-5-yl)-phenyl]-cyclobutyl}-[1,2,4]oxadiazol-5-yl)-pyrrolidin-3-ol] |  | 
24 | 0.019 | 210 | N#CC1CCN(c2nc(C3(c4ccc(-c5cnc(N)nc5)cc4)CCC3)no2)CC1 [Example 291, 1-(3-{1-[4-(2-Amino-pyrimidin-5-yl)-phenyl]-cyclobutyl}-[1,2,4]oxadiazol-5-yl)-piperidine-4-carbonitrile] |  | 
25 | 0.022 | 330 | CN(CC1CCOCC1)c1nc(C2(c3ccc(-c4cnc(N)nc4)cc3)CCC2)no1 [Example 292, 5-[4-(1-{5-[Methyl-(tetrahydro-pyran-4-ylmethyl)-amino]-[1,2,4]oxadiazol-3-yl}-cyclobutyl)-phenyl]-pyrimidin-2-ylamine] |  | 
